Patent US20090186878A1, “CRYSTALLINE FORMS OF A FARNESYL DIBENZODIAZEPINONE” (THALLION PHARMACEUTICALS INC., priority 2006, published 2009)
Converted amounts (≈) assume the structure as drawn.

Columns and labels:
[1] = Solubility determination in water (HPLC-MS of saturated aqueous solutions); format: physicochemical; conditions: for Solubility: in water, ambient temperature, after 24 hours, not at equilibrium, supernatant by HPLC-MS, LOD 10 ng/mL
Description: The drug solubility of a sample of each of crystal Form I and Form II and two samples of Form III (obtained from drying of Form I and Form II) was evaluated in water using an HPLC-MS method (High performance liquid chromatography apparatus coupled to a mass spectrometer). Saturated aqueous solutions of the crystals were stirred and kept at ambient temperature for 24 hours. Solutions were centrifuged at 3600 rpm and an aliquot of supernatant was analyzed by HPLC-MS.

[2] = Thermal treatment (annealing/drying) of crystals, check for decomposition; format: physicochemical; conditions: heated at 60, 70, 80, 90 or 100° C. under air atmosphere; by 1H NMR, TGA, XRPD and solubility
Description: Crystal Form III was produced by annealing of either Form I or Form II crystals using a variety of temperatures and under various conditions such as air or inert atmosphere or under reduced pressure.
A sample of Compound 1 crystals of Form II (1 mg to 30 g) was dried for 6 hours in an oven at an isothermal 60° C. temperature under reduced pressure (1-4 Torr) using an Edwards RV8 pump (or in a vacuum oven). Sample was allowed to cool to room temperature and crystal Form III obtained was analyzed as described in Examples 3, 4, 5 and 6.
Annealing process was done above the temperature of solvent elimination. No degradation was observed up to 160° C. when crystals were annealed under nitrogen or under reduced pressure. Annealing was also shown to proceed slowly at temperatures as low as 50° C.
As an example, when temperatures of 60, 70 and 90° C. were used, subsequent DSC analysis gave melting points respectively of 185.5, 184.5 and 183.4° C., and a mass enthalpy respectively of 84.6, 66.8 and 64.9 J/g. A slight degradation (less than 4%) was observed (NMR and solubility) when a temperature of 120° C. was used (melting point of 174° C., mass enthalpy of 39.7 J/g) under air atmosphere.

Row | Solubility [1] | Decomposition on transformation to Form III [2] | Structure (SMILES) | Relative (thermodynamic) stability judged from solubility ([1]; from Table 3 water solubility)
1 | 6.59 µg/mL (≈ 14.2 µM) | without observable decomposition | CC(C)=CCC/C(C)=C/CC/C(C)=C/CN1C(=O)c2cccc(O)c2Nc2c(O)cc(O)cc21 [Form I (MeOH/water)] | 
2 | 3.98 µg/mL (≈ 8.6 µM) | without observable decomposition | CC(C)=CCC/C(C)=C/CC/C(C)=C/CN1C(=O)c2cccc(O)c2Nc2c(O)cc(O)cc21 [Form II (EtOH/water)] | 
3 | 0.65 µg/mL (≈ 1.41 µM) |  | CC(C)=CCC/C(C)=C/CC/C(C)=C/CN1C(=O)c2cccc(O)c2Nc2c(O)cc(O)cc21 [Form III (annealed Form I)] | 
4 | <LOD* |  | CC(C)=CCC/C(C)=C/CC/C(C)=C/CN1C(=O)c2cccc(O)c2Nc2c(O)cc(O)cc21 [Form III (annealed Form II)] | 
5 |  |  | CC(C)=CCC/C(C)=C/CC/C(C)=C/CN1C(=O)c2cccc(O)c2Nc2c(O)cc(O)cc21 [Form III] | clearly more stable than crystal Forms I and II
